Legend:
[1] = tested on: phosphorylation of AKT, S6 and MAPK in NCI-H28 cells; experiment: Western blot analysis of tyrosine kinase growth factor receptor mediated pathways; assay type: cell-based; settings: 1 and 3 μM, FIG. 2
Protocol: (§1) Treated cells were lysed by adding SDS sample buffer (0.125M Tris-HCl pH6.8, 5% SDS). Samples were heated to 95° C. for 5 minutes and then sonicated using an Ultrasonic 2000 ARTEK. Lysed cells were centrifuged at 13,000 RPM for 10 minutes. Protein quantification was determined using BCA buffer (Pierce) and a BSA standard curve. 20 μg protein extract per well were loaded and separated by SDS-PAGE gel 7.5-10% (PAGE-PLUS 40% concentrate AMRESCO). The gel was blotted onto nitrocellulose filters (Hybond Amersham) in a buffer containing 25 mM Tris HCl pH 8.3, 192 mM Glycine and 20% methanol. The filters were saturated in 5% low-fat milk in TBS containing 0.1% Tween 20 (TBS-T) for 2 hours at room temperature and than incubated overnight at 4° C. with the primary monoclonal followed by washes in TBS-T and incubation using a secondary anti mouse antibody. The bands were visualized using the “Super Signal West Pico” Pierce.

[2] = tested on: MSTO-211H mesothelioma cell line; experiment: Inhibition of cell proliferation (cellular ATP monitoring); assay type: cell-based; settings: Homo sapiens, 72 hours after treatment
Protocol: (§2) MSTO-211H, NCI-H2052 and NCI-H28 mesothelioma cell lines were cultured in RPMI 1640 added with 10% FCS, 2 mM glutamine, 1 mM sodium pyruvate and 10 mM HEPES. For all the experiments cells were seeded at the density of 1×10^4/cm^2, the day after treatment with the compound for the prescribed duration and then collected at the reported times.
(§3) Cells were washed and counted 72 hours after the treatment. Cell proliferation was determined by a cellular adenosine triphosphate monitoring system. Cell proliferation was compared to control cells. The concentration inhibiting cell proliferation by 50% (IC50) was calculated.

[3] = tested on: NCI-H28 mesothelioma cell line; experiment: as above; assay type: cell-based; settings: Homo sapiens; NCI-H28, 72 hours after treatment
Protocol: as §2, §3

[4] = tested on: NCI-H2052 mesothelioma cell line; experiment: as above; assay type: cell-based; settings: Homo sapiens; NCI-H2052, 72 hours after treatment
Protocol: as §2, §3

[5] = tested on: Rb phosphorylation, cyclin A and cdc6 expression in NCI-H28 cells; experiment: Western blot analysis of cell cycle related markers; assay type: cell-based; settings: 1 and 3 μM, 24 hours, FIG. 2
Protocol: as §1

[6] = tested on: mesothelioma cells (MSTO-211H, NCI-H2052, NCI-H28); experiment: Inhibition of cell proliferation, summary over all tested mesothelioma cells; assay type: cell-based; settings: all the tested mesothelioma cells, 72 hours; read-out: IC50 range, inhibition of proliferation
Protocol: as §2, §3

[7] = tested on: cell cycle related markers in mesothelioma cell lines; experiment: Western blot analysis of cell cycle related markers, all cell lines; assay type: cell-based; settings: all mesothelioma cell lines tested
Protocol: as §1

[8] = tested on: MSTO-211H mesothelioma cell line; experiment: Analysis of cell cycle progression and apoptosis induction (cytofluorimetry, propidium iodide); assay type: cell-based
Protocol: (§4) MSTO-211H, NCI-H2052 and NCI-H28 mesothelioma cell lines were cultured in RPMI 1640 added with 10% FCS, 2 mM glutamine, 1 mM sodium pyruvate and 10 mM HEPES. For all the experiments cells were seeded at the density of 1×10^4/cm^2, the day after treatment with the compound for the prescribed duration and then collected at the reported times. Cells were washed 24 hours after the treatment, fixed with cold methanol 70% and stored at −20° C. Fixed cells were washed with PBS to remove methanol and were stained with 25 μg/mL of propidium iodide, 5 μg/mL of RNase, and 0.125 μg/mL of Nonidet P 40. Cells were kept at room temperature for 60 minutes in the dark and were analyzed by BD FACSCalibur™ system interfaced to a Macintosh G4 computer with BD CellQuest™ 3.3 software. All doublets or aggregates were removed during analysis by an appropriate gate on an FL3-A/FL3-W dot plot and DNA content analysis was performed in ≧10,000 gated cells. DNA histograms (shown in FIG. 1) were analyzed using ModFit LT™

[9] = tested on: NCI-H28 mesothelioma cell line; experiment: as above; assay type: cell-based; settings: NCI-H28, 24 hours after treatment, cytofluorimetric analysis
Protocol: as §4

[10] = tested on: NCI-H2052 mesothelioma cell line; experiment: as above; assay type: cell-based; settings: NCI-H2052, 24 hours after treatment, cytofluorimetric analysis
Protocol: as §4

[11] = target: Thropomyosin Receptor Kinase A (TRKA) (Homo sapiens, UniProt P04629); experiment: Scintillation Proximity Assay (SPA) for kinases; assay type: biochemical; settings: read-out: IC50 (printed 1050) towards TRKA
Protocol: This assay allows measurement of the inhibition of the kinase activity of a specific enzyme obtained with test compound. Different kinases can be tested in parallel.
A biotinylated substrate is trans-phosphorylated by a specific kinase in the presence of ATP including a γ33-ATP tracer. At the end of the reaction the phosphorylated substrate is then captured using Streptavidin-coated SPA beads. A dense 5M CsCl solution is added and the mixture is incubated for four hours. This causes the SPA beads to float to the top of the CsCl solution containing the unincorporated radiolabelled ATP.
The extent of phosphorylation is measured using a β-counter.

mesothelioma = settings: single agent, mesothelioma patients; cited from earlier work

Sequence of Thropomyosin Receptor Kinase A (TRKA) (P04629 33-796): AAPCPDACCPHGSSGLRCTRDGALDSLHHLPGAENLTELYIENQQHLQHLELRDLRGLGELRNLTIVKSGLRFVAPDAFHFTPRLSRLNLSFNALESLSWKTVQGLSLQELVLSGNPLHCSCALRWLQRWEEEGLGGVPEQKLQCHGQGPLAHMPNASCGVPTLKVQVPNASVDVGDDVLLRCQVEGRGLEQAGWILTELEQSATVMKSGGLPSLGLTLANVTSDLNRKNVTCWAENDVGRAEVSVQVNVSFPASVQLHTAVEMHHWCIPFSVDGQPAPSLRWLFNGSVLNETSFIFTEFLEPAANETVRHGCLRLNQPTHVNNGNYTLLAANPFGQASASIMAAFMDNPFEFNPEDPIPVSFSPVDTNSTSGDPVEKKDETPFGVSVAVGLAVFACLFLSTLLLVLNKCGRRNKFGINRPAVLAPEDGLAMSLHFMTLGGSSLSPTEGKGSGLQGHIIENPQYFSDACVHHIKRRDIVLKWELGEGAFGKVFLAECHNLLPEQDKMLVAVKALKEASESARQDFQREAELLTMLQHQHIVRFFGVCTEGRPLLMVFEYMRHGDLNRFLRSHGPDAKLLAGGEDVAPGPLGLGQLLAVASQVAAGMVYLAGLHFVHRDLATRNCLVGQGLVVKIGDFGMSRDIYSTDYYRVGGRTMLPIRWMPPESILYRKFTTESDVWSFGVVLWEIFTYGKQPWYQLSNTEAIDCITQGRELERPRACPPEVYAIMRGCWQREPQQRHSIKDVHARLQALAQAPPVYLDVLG

Compound | phosphorylation of AKT [1] | phosphorylation of MAPK [1] | phosphorylation of S6 [1] | IC50 [2] [µM] | IC50 [3] [µM] | IC50 [4] [µM] | Rb phosphorylation ([5]; NCI-H28 cells (mutated in p16/CDKN2A)) | cdc6 expression ([5]; NCI-H28 cells) | cyclin A expression ([5]; NCI-H28 cells) | IC50 [6] [nM] | cell cycle related markers [7] | Effect on cell cycle progression ([8]; 1 μM, 24 hours, FIG. 1) | Sub G1 peak (induction of apoptosis) ([8]; 3 μM, 24 hours, FIG. 1) | Sub G1 % (percentage of cells with a sub G1 DNA content, apoptosis) ([8]; 24 hours after treatment, cytofluorimetric analysis) [%] | Sub G1 % (percentage of cells with a sub G1 DNA content, apoptosis) [9] [%] | Sub G1 % (percentage of cells with a sub G1 DNA content, apoptosis) [10] [%] | IC50 [11] [nM] | median overall survival (mesothelioma) [months] | response rate (mesothelioma) [%]
CNC(=O)c1nn(C)c2c1C(C)(C)Cc1cnc(Nc3ccc(N4CCN(C)CC4)cc3)nc1-2 [compound of formula (I), 8-[4-(4-methyl-piperazin-1-yl)-phenylamino]-1,4,4-trimethyl-4,5-dihydro-1H-pyrazolo[4,3-h]quinazoline-3-carboxylic acid methylamide] | Inhibition in phosphorylation | Inhibition in phosphorylation | Inhibition in phosphorylation | 0.23 ± 0.1 | 1.56 ± 0.52 | 0.74 ± 0.37 | strong inhibition | strong inhibition | strong inhibition | 230 to 1560 | decrease | G1 block | increase of the sub G1 peak | 24 | 5 | 14 | 53 | – | –
Nc1nc2[nH]cc(CCc3ccc(C(=O)N[C@@H](CCC(=O)O)C(=O)O)cc3)c2c(=O)[nH]1 [pemetrexed] | – | – | – | – | – | – | – | – | – | – | – | – | – | – | – | – | – | 10.7 | 14.1

From patent US8912194B2, “CDK inhibitor for the treatment of mesothelioma” (Nerviano Medical Sciences S.R.L., priority 2008, dated 2014)
